US7786129B2, “Piperazine derivatives of dialkyl oxindoles” (Egis Gyogyszergyar Nyrt, priority 2004, dated 2010)
Structures can show the parent of a compound that is named as a salt. Marks after values point to notes of the source that are not given here.

Experiments:
α1 receptor = α1 receptor binding experiment; conditions: rat isolated frontal cortex preparation, ligand 3H-prazosine 0.3 nM
Protocol: (§1) Receptor bindings—with the exception of the 5-HT2C receptor binding—were determined by using cerebral region preparations of male Wistar rats weighing 120-200 g. For the preparation of 5-HT1A receptor binding frontal cortex preparations were used. The al receptor binding studies were performed from isolated frontal cortex pre-parations. For the 5-HT2C receptor binding experiments choroid plexus of pigs was used. The protein contents of membrane preparations were determined by the method of Lowry (1951).
(§2) In the course of 5-HT2C and α1 receptor binding experiments the ligands were ^3H-mesulergin (1.0 nM) and ^3H-prazosine (0.3 nM), respectively. The non-specifically binding ligands were mianserine (1 μM and prazosine (1 μM), respectively.
(§3) The IC50 value is the value of concentration where the difference between total and non-specific binding is 50% in the presence of a determined concentration of a specific ligand.

Male Wistar rats = experiment: Vogel's drinking conflict test; assay type: in vivo; conditions: ip, 0.5 h, rat, i.p. 30 min prior to test, increase in tolerated shocks, read-out: MED
Protocol: The anxiolytic effect of the compounds according to the invention was investigated on rats according to Vogel's drinking conflict test and elevated plus-maze test (S. Pelow, P. Chopin, S. E. File, J. Briley: Neurosci. Methods 14, p. 149 (1985)).
Male Wistar rats weighing 160-180 g were used for the experiment. The animals were deprived of drinking water for 48 hours and fasted for 24 hours prior to test. The test compounds or vehicle were administered intraperitoneally, 30 min prior to test. […] Following every 20 licks electric shocks (0.7 mA) were applied through the drinking spout during the 5 min test period. The number of punished licks were recorded. The effect of the test compounds was expressed as % increase in numbers of tolerated shocks. Minimal effective doses (MED) were determined for each compound.

5-HT1A receptor = target: T1, 5-HT1A receptor (Rattus norvegicus, UniProt P19327); experiment: 5-HT1A receptor binding; conditions: rat frontal cortex preparation, ligand tritiated 8-OH-DPAT
T1 construct: from tissue; host or cells: rat frontal cortex membrane preparation
T1 sequence (P19327 1-422): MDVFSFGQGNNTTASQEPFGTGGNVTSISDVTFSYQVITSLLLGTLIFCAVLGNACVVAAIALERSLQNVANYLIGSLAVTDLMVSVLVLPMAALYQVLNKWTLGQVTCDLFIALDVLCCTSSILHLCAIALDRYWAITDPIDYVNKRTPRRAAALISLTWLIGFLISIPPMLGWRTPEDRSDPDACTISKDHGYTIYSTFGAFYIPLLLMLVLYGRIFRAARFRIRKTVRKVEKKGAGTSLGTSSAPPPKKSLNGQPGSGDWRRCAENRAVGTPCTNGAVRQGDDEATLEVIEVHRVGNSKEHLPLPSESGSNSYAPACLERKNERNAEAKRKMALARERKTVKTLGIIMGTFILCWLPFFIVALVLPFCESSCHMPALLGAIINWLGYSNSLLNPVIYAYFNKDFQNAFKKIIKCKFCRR
Protocol: as §1
5-HT1A receptor binding was measured according to the method of Peroutka (Peroutka, S. J.: J. Neurochem. 47, p. 529 (1986)). The ligand was tritiated 8-hydroxy-N,N-dipropyl-2-aminotetraline (8-OH-DPAT). For the determination of non-specific binding 10 μM serotonin was applied. Incubation […] volume was 250 μl. Incubation was carried out at a temperature of 25 C for 30 minutes. The reaction was terminated by the addition of 9 ml of ice-cold 50 mM TRIS-HCl (pH 7.7) buffer and quick vacuum filtration using Whatman GFIB fibreglass filtering paper. Radioactivity of the filter boards was measured by liquid scintillation spectrometry.
as §3

Male Mongolian gerbils = experiment: Neuroprotective effect in global ischemia test (bilateral carotid occlusion); assay type: in vivo, Mongolian gerbil; conditions: gerbil
Protocol: Male Mongolian gerbils weighing 60-90 g were used as test animals. The test compounds were administered intraperitoneally at a dose of 30 mg/kg 45 min after surgery. Test substances were suspended in 0.4% methylcellulose solution. In diethylether narcosis, the right and left common carotid arteries were exposed through an anterior midline cervical incision and isolated from the vagus nerves and the surrounding tissues. Full arrest of carotid blood flow was achieved by tightening an aneurysm clip for 3 min. During surgery the body temperature of the animals was kept at the individual preoperative level (37.5±0.5° C.) with the help of a heating pad and a heating lamp.
4 days after the surgery the animals were anaesthetized with 60 mg/kg i.p nembutal (10 ml/kg) and perfused through the heart first with saline then with a fixative solution containing 0.1% glutaraldehyde, 4% paraformaldehyde and 0.2% picric acid in 0.1 M phosphate buffer (pH 7.4) for 30 min. The brain was removed from the skull and post fixed for at least 1 week at 4° C. in the same fixative solution.
Alternate coronal sections of 60 μm thickness were cut from different levels of the dorsal hippocampus by a microtome. The sections were repeatedly washed in 0.1 M phosphate buffer (pH 7.4) and stained by silver impregnation. The sections were stored twice in a preparatory solution (2% sodium hydroxide and 0.875% ammonium hydroxide solution) for 5 minutes, impregnated for 10 minutes in 0.875% ammonium hydroxide and 0.5% silver nitrate solution) and placed into a washing solution (0.5% sodium carbonate and 0.01% ammonium nitrate dissolved in a 29.1% aqueous ethanol solution) twice for 2 minutes and once for one minute. The slices were then developed in 9.9% ethanol solution containing 1.5% formaldehyde and 0.01% ammonium nitrate and fixed three times for 3 minutes in a 0.5% acetic acid solution. The stained slices were placed in 0.1M phosphate buffer (pH 7.4) and chrome gelatine, applied on plates, dehydrated and treated with xylol. The cover plates were fixed with DPX glue (Fluka).
The sections were examined under light microscopy and the overall neuronal damage in the hippocampal CA1 subfield in both hippocampi was scored on a 6-point scale: (O) undamaged, (1)—0-10%; (2)—10-30%; (3)—30-50%; (4)—50-70%; (5)—70-90%; (6)—90-100% cell loss. Group differences between drug-treated and vehicle-treated groups were statistically analysed by Mann-Whitney U-test.

5-HT2C receptor = target: T2, 5-HT2C receptor (Sus scrofa, UniProt K7GSR7); experiment: 5-HT2C receptor binding; set-up: species or system pig; conditions: choroid plexus of pigs, ligand 3H-mesulergin 1.0 nM
T2 construct: from tissue; host or cells: pig choroid plexus membrane preparation
T2 sequence (K7GSR7 1-457): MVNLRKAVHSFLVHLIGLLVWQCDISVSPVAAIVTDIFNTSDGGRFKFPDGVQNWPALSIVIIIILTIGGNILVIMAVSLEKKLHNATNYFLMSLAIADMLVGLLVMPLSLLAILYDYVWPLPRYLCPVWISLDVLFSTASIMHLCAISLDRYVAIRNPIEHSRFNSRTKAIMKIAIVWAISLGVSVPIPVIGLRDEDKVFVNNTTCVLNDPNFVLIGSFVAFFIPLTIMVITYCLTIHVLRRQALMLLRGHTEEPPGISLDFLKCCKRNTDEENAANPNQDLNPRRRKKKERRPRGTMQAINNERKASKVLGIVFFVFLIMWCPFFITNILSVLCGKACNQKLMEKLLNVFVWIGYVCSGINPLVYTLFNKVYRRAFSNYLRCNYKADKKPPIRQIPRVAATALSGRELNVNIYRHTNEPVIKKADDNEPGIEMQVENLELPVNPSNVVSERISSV
Protocol: as §1, §2, §3

CCC1(CCCCN2CCN(c3cccc4c3OCCO4)CC2)C(=O)Nc2ccccc21 (centres unmarked) [Example 63, 3-{4-[4-(2,3-Dihydrobenzo[1,4]dioxin-5-yl)-piperazin-1-yl]-butyl}-3-ethyl-1,3-dihydro-2H-indol-2-one]
IC50 (α1 receptor): < 0.05 µM | melting point: 169 to 170 °C

CCC1(CCCCN2CCN(c3ccccn3)CC2)C(=O)Nc2ccccc21 (centres unmarked) [Example 71, 3-Ethyl-3-[4-(4-pyridin-2-yl-piperazin-1-yl)-butyl]-1,3-dihydro-2H-indol-2-one]
minimal effective dose (Male Wistar rats): 20 mg/kg

CCC1(CCCCN2CCN(c3cccc(Cl)c3)CC2)C(=O)Nc2c(Cl)cc(Cl)cc21 (centres unmarked) [Example 79, 5,7-Dichloro-3-[4-[4-(3-chlorophenyl)-piperazin-1-yl]-butyl]-3-ethyl-1,3-dihydro-2H-indol-2-one]
melting point: 182 to 183 °C | IC50 (5-HT1A receptor): > 0.4 µM

CCC1(CCCCN2CCN(c3cccc(Cl)c3)CC2)C(=O)Nc2ccccc21 (centres unmarked) [Example 60, 3-{4-[4-(3-Chlorophenyl)-piperazin-1-yl]-butyl}-3-ethyl-1,3-dihydro-2H-indol-2-one-H2O—HCl-isopropanol (1:1:1:1)]
IC50 (α1 receptor): < 0.1 µM

CC(C)CC1(CCCCN2CCN(c3cccc(Cl)c3)CC2)C(=O)Nc2ccccc21 (centres unmarked) [Example 75, 3-{4-[4-(3-Chlorophenyl)-piperazin-1-yl]-butyl}-3-isobutyl-1,3-dihydro-2H-indol-2-one monohydrochloride]
minimal effective dose (Male Wistar rats): 10 mg/kg | IC50 (5-HT1A receptor): > 0.2 µM

CCC1(CCCCN2CCN(c3ccc(Cl)cc3)CC2)C(=O)Nc2ccc(F)cc21 (centres unmarked) [Example 90, 3-{4-[4-(4-Chlorophenyl)-piperazin-1-yl]-butyl}-3-ethyl-5-fluoro-1,3-dihydro-2H-indol-2-one]
melting point: 148 to 150 °C | Effect (%) (Male Mongolian gerbils; change of CA1 cell loss score vs. control, 30 mg/kg i.p.): −38% | CA1 cell loss (score) (Male Mongolian gerbils; 30 mg/kg i.p. 45 min after surgery, scored 4 days after surgery on 6-point scale): 2.73* score | IC50 (5-HT1A receptor): > 0.3 µM

CC(C)CC1(CCCCN2CCN(c3ccccn3)CC2)C(=O)Nc2ccccc21 (centres unmarked) [Example 62, 3-Isobutyl-3-[4-(4-pyridin-2-yl-piperazin-1-yl)-butyl]-1,3-dihydro-2H-indol-2-one]
IC50 (α1 receptor): < 0.1 µM | melting point: 158 to 159 °C

CCC1(CCCCN2CCN(c3ccccc3OC)CC2)C(=O)Nc2ccccc21 (centres unmarked) [Example 69, 3-Ethyl-3-{4-[4-(2-methoxyphenyl)-piperazin-1-yl]-butyl}-1,3-dihydro-2H-indol-2-one monooxalate]
minimal effective dose (Male Wistar rats): 10 mg/kg

CCC1(CCCCN2CCN(c3cccc(Cl)c3)CC2)C(=O)Nc2ccc(Br)cc21 (centres unmarked) [Example 61, 5-Bromo-3-{4-[4-(3-chlorophenyl)-piperazin-1-yl]-butyl}-3-ethyl-1,3-dihydro-2H-indol-2-one monooxalate]
IC50 (5-HT2C receptor): < 0.1 µM | IC50 (5-HT1A receptor): > 0.2 µM

CCC1(CCCCN2CCN(c3ccc(Cl)c(C(F)(F)F)c3)CC2)C(=O)Nc2ccccc21 (centres unmarked) [Example 96, 3-{4-[4-(4-Chloro-3-trifluoromethyl-phenyl)-piperazin-1-yl]-butyl}-3-ethyl-1,3-dihydro-2H-indol-2-one monohydrochloride]
IC50 (5-HT1A receptor): > 0.4 µM

CCC1(CCCCN2CCN(c3ccccn3)CC2)C(=O)Nc2ccc(Br)cc21 (centres unmarked) [Example 59, 5-Bromo-3-ethyl-3-[4-(4-pyridin-2-yl-piperazin-1-yl)-butyl]-1,3-dihydro-2H-indol-2-one]
IC50 (α1 receptor): < 0.1 µM | melting point: 114 to 115 °C

CCC1(CCCCN2CCN(c3cccc(Cl)c3)CC2)C(=O)Nc2cc(F)c(Cl)cc21 (centres unmarked) [Example 89, 5-Chloro-3-{4-[4-(3-chlorophenyl)-piperazin-1-yl]-butyl}-3-ethyl-6-fluoro-1,3-dihydro-2H-indol-2-one monohydrochloride]
IC50 (5-HT1A receptor): > 0.3 µM

CCC1(CCCCN2CCN(c3cccc(Cl)c3)CC2)C(=O)Nc2ccc(S(N)(=O)=O)cc21 (centres unmarked) [Example 72, 3-{4-[4-(3-Chlorophenyl)-piperazin-1-yl]-butyl}-3-ethyl-1,3-dihydro-2H-indol-2-one 5-sulfonamide monooxalate]
IC50 (5-HT2C receptor): < 0.1 µM | IC50 (5-HT1A receptor): > 0.2 µM

CC(C)CC1(CCCCN2CCN(c3cccc4c3OCCO4)CC2)C(=O)Nc2ccccc21 (centres unmarked) [Example 64, 3-{4-[4-(2,3-Dihydrobenzo[1,4]dioxin-5-yl)-piperazin-1-yl]-butyl}-3-isobutyl-1,3-dihydro-2H-indol-2-one]
IC50 (α1 receptor): < 0.05 µM | melting point: 152 to 154 °C

CCC1(CCCCN2CCN(c3ccc(Cl)cc3)CC2)C(=O)Nc2cc(F)ccc21 (centres unmarked) [Example 86, 3-{4-[4-(4-Chlorophenyl)-piperazin-1-yl]-butyl}-3-ethyl-6-fluoro-1,3-dihydro-2H-indol-2-one]
melting point: 145 to 147 °C | IC50 (5-HT1A receptor): > 0.3 µM

CCC1(CCCN2CCN(c3cccc(Cl)c3)CC2)C(=O)Nc2ccc(Cl)cc21 (centres unmarked) [Example 57, 5-Chloro-3-{3-[4-(3-chlorophenyl)-piperazin-1-yl]-propyl}-3-ethyl-1,3-dihydro-2H-indol-2-one]
melting point: 117 to 119 °C | IC50 (5-HT2C receptor): < 0.05 µM

CCC1(CCCCN2CCN(c3ccccc3)CC2)C(=O)Nc2ccccc21 (centres unmarked) [Example 68, 3-[4-(4-Phenylpiperazin-1-yl)-butyl]-3-ethyl-1,3-dihydro-2H-indol-2-one monooxalate]
minimal effective dose (Male Wistar rats): 10 mg/kg | IC50 (5-HT2C receptor): < 0.1 µM | IC50 (5-HT1A receptor): > 0.2 µM
